Data published in PubChem BioAssay AID1963982 (Molecular Pharmacology Branch, DTP, NCI, 2024).
Each block holds one compound with its values, some of them ahead of it.

System: 313798-341-R-J2-PDC spheroids, viability
Assay: Anticancer human tumor 313798-341-R-J2-PDC patient-derived cervical squamous cell carcinoma cell line growth inhibition [PI3K]
Conditions: spheroids with HUVEC and MSC; for IC50: curve of first compound; for viability, T/C: stronger effect = lower value
In short: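 Targeted small molecules plus PI3K inhibitors, half-log dose series from Cmax (default top 10 microM), were applied to heterotypic spheroids of cancer cells with HUVEC and MSCs. Viability indicated growth inhibition.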

[1] = second compound 0.0316 µM, first compound 0.0316 µM
[2] = second compound 0.0316 µM, first compound 0.1 µM
[3] = second compound 0.0316 µM, first compound 0.316 µM
[4] = second compound 0.0316 µM, first compound 1 µM
[5] = second compound 0.0316 µM, first compound 3.16 µM
[6] = second compound 0.0316 µM, first compound 10 µM
[7] = second compound 0.1 µM, first compound 0.0316 µM
[8] = second compound 0.1 µM, first compound 0.1 µM
[9] = second compound 0.1 µM, first compound 0.316 µM
[10] = second compound 0.1 µM, first compound 1 µM
[11] = second compound 0.1 µM, first compound 3.16 µM
[12] = second compound 0.1 µM, first compound 10 µM
[13] = second compound 0.316 µM, first compound 0.0316 µM
[14] = second compound 0.316 µM, first compound 0.1 µM
[15] = second compound 0.316 µM, first compound 0.316 µM
[16] = second compound 0.316 µM, first compound 1 µM
[17] = second compound 0.316 µM, first compound 3.16 µM
[18] = second compound 0.316 µM, first compound 10 µM
[19] = second compound 1 µM, first compound 0.0316 µM
[20] = second compound 1 µM, first compound 0.1 µM
[21] = second compound 1 µM, first compound 0.316 µM
[22] = second compound 1 µM, first compound 1 µM
[23] = second compound 1 µM, first compound 3.16 µM
[24] = second compound 1 µM, first compound 10 µM
[25] = second compound 3.16 µM, first compound 0.0316 µM
[26] = second compound 3.16 µM, first compound 0.1 µM
[27] = second compound 3.16 µM, first compound 0.316 µM
[28] = second compound 3.16 µM, first compound 1 µM
[29] = second compound 3.16 µM, first compound 3.16 µM
[30] = second compound 3.16 µM, first compound 10 µM
[31] = second compound 10 µM, first compound 0.0316 µM
[32] = second compound 10 µM, first compound 0.1 µM
[33] = second compound 10 µM, first compound 0.316 µM
[34] = second compound 10 µM, first compound 1 µM
[35] = second compound 10 µM, first compound 3.16 µM
[36] = second compound 10 µM, first compound 10 µM
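Note: spheroids exposed to compounds for seven days.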
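Throughout, for viability, T/C: 100% = DMSO vehicle control viability.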

- IC50 (second compound 0.0316 µM): > 10 µM
- IC50 (second compound 0.1 µM): > 10 µM
- IC50 (second compound 0.316 µM): > 10 µM
- IC50 (second compound 1 µM): > 10 µM
- IC50 (second compound 3.16 µM): > 10 µM
- IC50 (second compound 10 µM): > 10 µM
Structure (SMILES): C#Cc1c(F)ccc2cc(O)cc(-c3ncc4c(N5CC6CCC(C5)N6)nc(OCC56CCCN5CC(F)C6)nc4c3F)c12 (stereo not given) + CC(Nc1ncnc2nc[nH]c12)c1cc2cccc(Cl)c2c(=O)n1-c1ccccc1
- viability, T/C [1]: 95.5%
- viability, T/C [2]: 95.7%
- viability, T/C [3]: 99%
- viability, T/C [4]: 101%
- viability, T/C [5]: 101%
- viability, T/C [6]: 96.9%
- viability, T/C [7]: 92.5%
- viability, T/C [8]: 95.8%
- viability, T/C [9]: 93.2%
- viability, T/C [10]: 98.3%
- viability, T/C [11]: 102%
- viability, T/C [12]: 102%
- viability, T/C [13]: 95.3%
- viability, T/C [14]: 104%
- viability, T/C [15]: 90.9%
- viability, T/C [16]: 93.9%
- viability, T/C [17]: 99.1%
- viability, T/C [18]: 100%
- viability, T/C [19]: 114%
- viability, T/C [20]: 99.4%
- viability, T/C [21]: 90.3%
- viability, T/C [22]: 94.6%
- viability, T/C [23]: 104%
- viability, T/C [24]: 107%
- viability, T/C [25]: 110%
- viability, T/C [26]: 97.2%
- viability, T/C [27]: 94.3%
- viability, T/C [28]: 101%
- viability, T/C [29]: 90.4%
- viability, T/C [30]: 99.9%
- viability, T/C [31]: 93.2%
- viability, T/C [32]: 83.9%
- viability, T/C [33]: 81%
- viability, T/C [34]: 81.2%
- viability, T/C [35]: 85.1%
- viability, T/C [36]: 81.9%

- IC50 (second compound 0.0316 µM): > 10 µM
- IC50 (second compound 0.1 µM): > 10 µM
- IC50 (second compound 0.316 µM): > 10 µM
- IC50 (second compound 1 µM): > 10 µM
- IC50 (second compound 3.16 µM): > 10 µM
- IC50 (second compound 10 µM): > 10 µM
Structure (SMILES): C=CC(=O)N1CCN(c2nc(=O)n(-c3c(C)ccnc3C(C)C)c3nc(-c4c(O)cccc4F)c(F)cc23)C(C)C1 (stereo not given) + CC(Nc1ncnc2nc[nH]c12)c1cc2cccc(Cl)c2c(=O)n1-c1ccccc1
- viability, T/C [1]: 112%
- viability, T/C [2]: 102%
- viability, T/C [3]: 113%
- viability, T/C [4]: 100%
- viability, T/C [5]: 103%
- viability, T/C [6]: 94.9%
- viability, T/C [7]: 89.4%
- viability, T/C [8]: 96.2%
- viability, T/C [9]: 99.1%
- viability, T/C [10]: 99.8%
- viability, T/C [11]: 102%
- viability, T/C [12]: 102%
- viability, T/C [13]: 106%
- viability, T/C [14]: 91.5%
- viability, T/C [15]: 106%
- viability, T/C [16]: 98.1%
- viability, T/C [17]: 104%
- viability, T/C [18]: 92.9%
- viability, T/C [19]: 102%
- viability, T/C [20]: 95.4%
- viability, T/C [21]: 102%
- viability, T/C [22]: 90.3%
- viability, T/C [23]: 98.2%
- viability, T/C [24]: 102%
- viability, T/C [25]: 110%
- viability, T/C [26]: 94.1%
- viability, T/C [27]: 87.6%
- viability, T/C [28]: 99.5%
- viability, T/C [29]: 100%
- viability, T/C [30]: 91.9%
- viability, T/C [31]: 87.7%
- viability, T/C [32]: 85.2%
- viability, T/C [33]: 98.2%
- viability, T/C [34]: 84.1%
- viability, T/C [35]: 90.4%
- viability, T/C [36]: 78.3%

- IC50 (second compound 0.0316 µM): > 10 µM
- IC50 (second compound 0.1 µM): > 10 µM
- IC50 (second compound 0.316 µM): > 10 µM
- IC50 (second compound 1 µM): > 10 µM
- IC50 (second compound 3.16 µM): > 10 µM
- IC50 (second compound 10 µM): > 10 µM
Structure (SMILES): CC(Cn1ccc(-c2ccc(C#N)c(Cl)c2)n1)NC(=O)c1cc(C(C)O)[nH]n1 (stereo not given) + CC(Nc1ncnc2nc[nH]c12)c1cc2cccc(Cl)c2c(=O)n1-c1ccccc1
- viability, T/C [1]: 119%
- viability, T/C [2]: 103%
- viability, T/C [3]: 106%
- viability, T/C [4]: 115%
- viability, T/C [5]: 101%
- viability, T/C [6]: 101%
- viability, T/C [7]: 101%
- viability, T/C [8]: 105%
- viability, T/C [9]: 104%
- viability, T/C [10]: 103%
- viability, T/C [11]: 98%
- viability, T/C [12]: 95%
- viability, T/C [13]: 90.9%
- viability, T/C [14]: 103%
- viability, T/C [15]: 96.6%
- viability, T/C [16]: 101%
- viability, T/C [17]: 102%
- viability, T/C [18]: 90%
- viability, T/C [19]: 113%
- viability, T/C [20]: 106%
- viability, T/C [21]: 108%
- viability, T/C [22]: 101%
- viability, T/C [23]: 96.2%
- viability, T/C [24]: 91.5%
- viability, T/C [25]: 108%
- viability, T/C [26]: 103%
- viability, T/C [27]: 100%
- viability, T/C [28]: 107%
- viability, T/C [29]: 105%
- viability, T/C [30]: 93.4%
- viability, T/C [31]: 87.8%
- viability, T/C [32]: 88.3%
- viability, T/C [33]: 94.6%
- viability, T/C [34]: 100%
- viability, T/C [35]: 90.8%
- viability, T/C [36]: 81.7%

- IC50 (second compound 0.0316 µM): 0.777 µM
- IC50 (second compound 0.1 µM): 0.984 µM
- IC50 (second compound 0.316 µM): 1.1 µM
- IC50 (second compound 1 µM): 1.08 µM
- IC50 (second compound 3.16 µM): 0.79 µM
- IC50 (second compound 10 µM): 0.785 µM
Structure (SMILES): Cn1ncc(Cl)c1-c1cc(C(=O)NC(CN)Cc2cccc(F)c2)sc1Cl (stereo not given) + CC(Nc1ncnc2nc[nH]c12)c1cc2cccc(Cl)c2c(=O)n1-c1ccccc1
- viability, T/C [1]: 86.5%
- viability, T/C [2]: 82.8%
- viability, T/C [3]: 73.1%
- viability, T/C [4]: 43.1%
- viability, T/C [5]: 34.9%
- viability, T/C [6]: 30.9%
- viability, T/C [7]: 108%
- viability, T/C [8]: 89.5%
- viability, T/C [9]: 84.4%
- viability, T/C [10]: 48.6%
- viability, T/C [11]: 32.2%
- viability, T/C [12]: 34.8%
- viability, T/C [13]: 97.5%
- viability, T/C [14]: 92.8%
- viability, T/C [15]: 70.8%
- viability, T/C [16]: 54.9%
- viability, T/C [17]: 32.2%
- viability, T/C [18]: 30.9%
- viability, T/C [19]: 101%
- viability, T/C [20]: 88.2%
- viability, T/C [21]: 77.9%
- viability, T/C [22]: 47.5%
- viability, T/C [23]: 38.8%
- viability, T/C [24]: 29%
- viability, T/C [25]: 107%
- viability, T/C [26]: 86.1%
- viability, T/C [27]: 62.4%
- viability, T/C [28]: 49.3%
- viability, T/C [29]: 32.5%
- viability, T/C [30]: 30.8%
- viability, T/C [31]: 87%
- viability, T/C [32]: 78.1%
- viability, T/C [33]: 67.8%
- viability, T/C [34]: 46.5%
- viability, T/C [35]: 27.7%
- viability, T/C [36]: 25.8%

- IC50 (second compound 0.0316 µM): > 10 µM
- IC50 (second compound 0.1 µM): > 10 µM
- IC50 (second compound 0.316 µM): > 10 µM
- IC50 (second compound 1 µM): > 10 µM
- IC50 (second compound 3.16 µM): > 10 µM
- IC50 (second compound 10 µM): > 10 µM
Structure (SMILES): Cn1nccc1Nc1nccc(-c2ccn(C(CO)c3ccc(Cl)c(F)c3)c(=O)c2)n1 (stereo not given) + CC(Nc1ncnc2nc[nH]c12)c1cc2cccc(Cl)c2c(=O)n1-c1ccccc1
- viability, T/C [1]: 92.4%
- viability, T/C [2]: 94.5%
- viability, T/C [3]: 90.1%
- viability, T/C [4]: 99.1%
- viability, T/C [5]: 91.3%
- viability, T/C [6]: 95.1%
- viability, T/C [7]: 100%
- viability, T/C [8]: 108%
- viability, T/C [9]: 97.7%
- viability, T/C [10]: 104%
- viability, T/C [11]: 105%
- viability, T/C [12]: 94.2%
- viability, T/C [13]: 114%
- viability, T/C [14]: 95.7%
- viability, T/C [15]: 90.2%
- viability, T/C [16]: 95%
- viability, T/C [17]: 110%
- viability, T/C [18]: 101%
- viability, T/C [19]: 102%
- viability, T/C [20]: 85.4%
- viability, T/C [21]: 107%
- viability, T/C [22]: 98.9%
- viability, T/C [23]: 93.5%
- viability, T/C [24]: 94.1%
- viability, T/C [25]: 97.6%
- viability, T/C [26]: 96%
- viability, T/C [27]: 94.1%
- viability, T/C [28]: 87.7%
- viability, T/C [29]: 89.9%
- viability, T/C [30]: 90.6%
- viability, T/C [31]: 98.8%
- viability, T/C [32]: 75.3%
- viability, T/C [33]: 77.8%
- viability, T/C [34]: 78.7%
- viability, T/C [35]: 85.8%
- viability, T/C [36]: 73.8%
